Measurements from US11478475B2, “Inhibitor of histone deacetylase 6 in the treatment of t-cell acute lymphoblastic leukemia (T-ALL) and other neoplasia with high expression of notch-3” (ISTITUTO ONCOLOGICO VENETO IOV-IRCCS, priority 2017, dated 2022).
Residues, ends and D or L forms follow the SMILES beside them. *: point of attachment. Cbz = O=C(OCc1ccccc1)*

Columns and labels:
Notch3 receptor [1] = assay: Western blotting of Notch3 protein in T-ALL cell lines; assay type: cell-based, human; details: 16 hours; for Notch3 protein levels, inhibitor added to TSA: MOLT3 and TALL1 cells, with proteasome or lysosome inhibitor
Protocol: In particular, in FIG. 1A is shown the three cell lines of T-ALL MOLT3, Jurkat and DND41 were treated for 16 hours in vitro with TSA 500 nM.
MOLT3 cells shown in FIG. 3A and TALL1 cells shown in FIG. 3B were treated with TSA 500 nM for 16 hours, and simultaneously in the presence or absence of a proteasome (MG132) or lysosome (chloroquine—CHL) inhibitor. […] The numbers below the bands refer to densitometric analysis.
In FIG. 4A, T-ALL cell lines and primary cells were treated in vitro for 16 hours with the HDAC6 inhibitor Tubacin (2 μM, TUB), HDAC1 inhibitor (2 μM, HDAC1i), or HDAC8 inhibitor (2 μM, HDAC8i). […] In FIG. 4C, the three cell lines of T-ALL MOLT3, Jurkat and DND41 (left) and n=3 primary lines (right) were treated for 24 hours in vitro with the compounds previously described, and cell death was evaluated by marking with Annexin V and analysis by cytofluorometer (*P<0.05, **P<0.01, ***P<0.001, mean±SD of three independent experiments).
(§1) In FIGS. 6A-6C, MOLT3 and TALL1 cell lines were infected with two different lentiviruses that block HDAC6 expression (shHDAC6 #1 and #2).
(§2) In FIG. 8A, JURKAT cells were treated in vitro with rocilinostat at a concentration of 8 μM for 16 hours.

[2] = system: Notch3 receptor present in the membrane; assay: Cytofluorometric analysis of Notch3 membrane expression in T-ALL cells; assay type: cell-based, human
TALL1 cells = assay: Cytotoxicity seen as reduction of actin in Western blot; assay type: cell-based, human; details: 20 μM
[3] = system: target genes pTα, CR2, DTX-1; assay: Expression of Notch target genes in T-ALL cell lines and primary cells; assay type: cell-based, human
Protocol: (§3) In particular, in FIG. 1A is shown the three cell lines of T-ALL MOLT3, Jurkat and DND41 were treated for 16 hours in vitro with TSA 500 nM. The western blotting confirms the decrease of the full length (FL) Notch3 receptor after treatment. Inhibition of HDACs is confirmed by the increase of acetylated tubulin (Ac. α Tub.). […] The treatment with TSA is accompanied by a decrease in the target genes pTα, CR2, DTX-1 in the cell lines shown in FIG. 1D and in the primary cells shown in FIG. 1E. (*P<0.05, **P<0.01, ***P<0.001, mean±SD of three independent experiments).
(§4) In FIG. 4A, T-ALL cell lines and primary cells were treated in vitro for 16 hours with the HDAC6 inhibitor Tubacin (2 μM, TUB), HDAC1 inhibitor (2 μM, HDAC1i), or HDAC8 inhibitor (2 μM, HDAC8i). Treatment with Tubacin is shown in FIG. 4B, but not with the other inhibitors, is accompanied by a decrease in the target genes pTα, CR2, DTX-1. In FIG. 4C, the three cell lines of T-ALL MOLT3, Jurkat and DND41 (left) and n=3 primary lines (right) were treated for 24 hours in vitro with the compounds previously described, and cell death was evaluated by marking with Annexin V and analysis by cytofluorometer (*P<0.05, **P<0.01, ***P<0.001, mean±SD of three independent experiments).

[4] = system: T-ALL cell lines and primary lines; assay: Cell death by annexin V marking and cytofluorometer in T-ALL cells; assay type: cell-based, human; details: 24 hours
Protocol: (§5) In FIG. 2A and the 7 primary lines shown in FIG. 2B were treated for 24 hours in vitro with TSA 500 nM. Cell death was evaluated by marking with annexin V and analysis with the cytofluorometer. Proliferation inhibition shown in FIG. 2C was assessed in the MOLT3 line by cell count (left panel) and MTS assay (right panel). In FIG. 2D, the Jurkat cells were infected with a control virus (RV-CNTR) or with an expressing Notch3 virus (RV-N3) and subsequently treated with TSA 500 nM for 24 hours. Cell death was evaluated by a luminescence assay for caspase activation (*P<0.05, **P<0.01, ***P<0.001, mean±SD of three independent experiments).
as §4
In FIG. 5 the T-ALL cell lines were treated in vitro for 24 hours with the HDAC6 Tubacin inhibitor (2 μM, TUB) and cell death was assessed by marking with Annexin V and analysis by cytofluorometer (*P<0.05, **P<0.01, ***P<0.001, mean±SD of three independent experiments).
as §2

Notch3 [5] = assay: Cytofluorometric evaluation of Notch3 membrane expression in HCC-1143 cells; assay type: cell-based
Protocol: The following protocol was used for the graphs of FIG. 18:
(§6) Day 1: coating of plate with Notch ligands (ligand concentration 4 ng/uL)
(§7) Day 3 treatment with rocilinostat (16 μM) or control (DMSO)
Day 4: marking+reading by cytofluorometer

[6] = system: acetylated tubulin (Ac. α Tub.); assay: Western blotting of acetylated tubulin in T-ALL cell lines; assay type: cell-based, human; details: 16 hours
Protocol: as §3, §2

HDAC6 = assay: Western blotting, inhibition of the target HDAC6 in MDA-MB-468 cells; assay type: cell-based; details: 8 μM
Protocol: (§8) In the assay of FIG. 11, Rocilinostat (ACY 1215) is used at a concentration of 8 μM in MDA-MB-468 cells. The expression of Notch3 and other markers was evaluated in cellular lysate by Western blotting.

HCC-1143 cells = assay: Dose-response growth curve in HCC-1143 cells; assay type: cell-based
acetylated tubulin = assay: Acetylated tubulin levels in HCC-1143 cells; assay type: cell-based; details: 8 μM, 24 hours
Protocol: (§9) To evaluate the effects of rocilinostat on Notch3 expression in HCC-1143 cells, HCC-1143 cells were treated in vitro with rocilinostat at a concentration of 8 μM for 24 hours. […] The increase in acetylated tubulin levels confirms the activity of rocilinostat.

NOTCH3 FL protein = assay: Notch3 FL protein levels in HCC-1143 cells; assay type: cell-based; details: 8 μM, 24 hours
Protocol: as §9

[7] = system: MDA-MB-468 breast cancer cells; assay: Cell mortality by Annexin V/propidium iodide in MDA-MB-468 cells; assay type: cell-based; details: 16 μM
Protocol: For the assay of FIG. 14, the following protocol was used:
(§10) Day 1: coating (ligand concentration 4 ng/uL)
(§11) Day 3 treatment with 16 μM rocilinostat
Day 5: marking with Annexin V/propidium iodide+reading of mortality by cytofluorometer

Notch3 [8] = assay: Western blotting of Notch3 in MDA-MB-468 cells; assay type: cell-based; details: 8 μM
Protocol: as §8

[9] = system: HCC1143 breast cancer cells; assay: Cell mortality by Annexin V/propidium iodide in HCC-1143 cells; assay type: cell-based; details: 16 μM
Protocol: For the graphs of FIG. 19, the following protocol was used:
as §10, §11
Day 5: marking with Annexin V/propidium iodide+reading of mortality by cytofluorometer.

two T-ALL cell lines = assay: Cell viability by ATPlite assay; assay type: cell-based, human; details: 48 hours, indicated concentrations
Notch3 [10] = assay: Cytofluorometric evaluation of Notch3 expression in MDA-MB-468 cells; assay type: cell-based
Protocol: The graph of FIG. 12 confirms the reduction of Notch3 expression in MDA-MB-468 cell membrane after treatment with rocilinostat (8 μM) at 24 hours, in accordance with the results of the WB.
For the assay of FIG. 13, the following protocol was used:
as §6, §7
Day 4: Marking+reading by cytofluorometer

Notch3 receptor [11] = assay: Notch3 protein levels in patient-derived primary T-ALL lines; assay type: cell-based, human; details: n=7 patient-derived primary lines; TSA 500 nM, 16 hours
Protocol: Initially we treated 3 T-ALL cell lines in the laboratory with Tricostatin A (TSA), a generic commercial inhibitor that inhibits the whole class of HDACs that is commonly used in experimental practices. […] The same result was obtained by treating 7 patient-derived primary lines in vitro with TSA.
as §3

MOLT3 line = assay: Proliferation by cell count and MTS assay; assay type: cell-based, human; details: TSA
Protocol: as §5

[12] = system: Notch3 and the lysosomal marker LAMP2; assay: Immunofluorescence analysis of Notch3/LAMP2 co-localization; assay type: cell-based; details: after treatment with TSA, N=21 cells
[13] = system: Jurkat, MOLT3 and TALL1 cells; assay: Cell death by luminescence assay for caspase activation; assay type: cell-based, human; details: TSA 500 nM, 24 hours
Protocol: as §5, §1

[14] = MOLT3, Jurkat and DND41, TSA 500 nM

CCN(CC)CCCC(C)Nc1ccnc2cc(Cl)ccc12 (stereo not drawn) [Chloroquine, chloroquine]
Notch3 protein levels, inhibitor added to TSA (Notch3 receptor [1]; TSA 500 nM): decrease of Notch3 blocked

CC(C)C[C@@H](C=O)NC(=O)[C@H](CC(C)C)NC(=O)[C@H](CC(C)C)NC(=O)OCc1ccccc1 [MG132] (Cbz-Leu-Leu-Leu-aldehyde)
Notch3 protein levels, inhibitor added to TSA (Notch3 receptor [1]; TSA 500 nM): further lowers

CC(C)C[C@H](NC(=O)[C@H](Cc1ccccc1)NC(=O)c1cnccn1)B(O)O [Bortezomib]
Notch3 expression ([2]; TALL1 cells, 20 μM): negative effect
cytotoxicity (reduction of actin in Western blot) (TALL1 cells): high cytotoxicity

O=C(CCCCCCC(=O)Nc1ccc([C@H]2O[C@@H](CSc3nc(-c4ccccc4)c(-c4ccccc4)o3)C[C@@H](c3ccc(CO)cc3)O2)cc1)NO [Tubacin]
target genes pTα, CR2, DTX-1 ([3]; T-ALL cells, 2 μM, 16 hours): decrease
cell death (annexin V) ([4]; MOLT3, Jurkat, DND41 and n=3 primary lines, 2 μM): effects comparable to the generic TSA inhibitor
sensitivity of TALL1 cell line compared with other cell lines (cell death, Annexin V) ([4]; Tubacin 2 μM): significantly more sensitive
decrease in Notch3 protein levels (Notch3 receptor [1]; T-ALL cell lines and primary cells, 2 μM): effects comparable to the generic TSA inhibitor

O=C(CCCCCCNC(=O)c1cnc(N(c2ccccc2)c2ccccc2)nc1)NO [rocilinostat, ricolinostat]
Notch3 expression, intensity of expression (MFI) (Notch3 [5]; 16 μM): more evident
Notch3 expression, percentage of positive cells (%) (Notch3 [5]; 16 μM): moderate negative effect
effects on Notch3 expression in the presence of Notch ligands (JAG1 and DLL4) (Notch3 [5]; 16 μM, ligand 4 ng/uL): not much influenced
Notch3 membrane expression (Notch3 [5]; rocilinostat alone): reduction
acetylated tubulin levels ([6]; JURKAT cells, 8 μM): increase
target (HDAC6) inhibition (HDAC6; 16 hours): inhibited
target (HDAC6) inhibition (HDAC6; 24 hours): inhibited
target (HDAC6) inhibition (HDAC6; 48 hours): no longer inhibited
growth of HCC-1143 cells (dose-response curve) (HCC-1143 cells): inhibits the growth of HCC-1143 cells with dose-dependent effects
acetylated tubulin levels (acetylated tubulin): increase
levels of NOTCH3 FL protein (NOTCH3 FL protein): decreases
cell mortality (Annexin V/propidium iodide) ([7]; Day 3 to Day 5): causes the death
cell mortality in the presence of Notch ligands (JAG1 and DLL4) ([7]; ligand 4 ng/uL): maintained or slightly increased
Notch3 membrane expression ([2]; TALL1 cells, 8 μM, 16 hours): reduces
Notch3 expression, Western blotting (Notch3 [8]; 16 hours): not reduced
Notch3 expression, Western blotting (Notch3 [8]; 24 hours): drop in Notch3
cell mortality (Annexin V/propidium iodide) ([9]; Day 3 to Day 5): causes the death
cell mortality in the presence of Notch ligands (JAG1 and DLL4) ([9]; ligand 4 ng/uL): maintained
cell viability (ATPlite assay) (two T-ALL cell lines): marked negative effect on cell growth
apoptosis (annexin V) ([4]; JURKAT and TALL1, 8 μM): strong increase of cell death
Notch3 expression in cell membrane (Notch3 [10]; 8 μM, 24 hours): reduction
Notch3 expression, intensity of expression (MFI) (Notch3 [10]; 16 μM): marked negative effect
Notch3 expression, percentage of positive cells (%) (Notch3 [10]; 16 μM): marked negative effect
effect on Notch3 expression in the presence of Notch ligands (JAG1 and DLL4) (Notch3 [10]; 16 μM, ligand 4 ng/uL): not substantially affected
levels of the NOTCH3 FL protein, Western blotting (Notch3 receptor [1]; JURKAT cells, 8 μM): decreases

CC(/C=C/C(=O)NO)=C\[C@@H](C)C(=O)c1ccc(N(C)C)cc1 [TSA, Tricostatin A]
acetylated tubulin (Ac. α Tub.) [6, 14]: increase
Notch3 receptor protein levels (Notch3 receptor [11]): confirming the result seen in the cell lines
Notch3 receptor present in the membrane ([2]; Jurkat cells, Notch2/3 antibody, cytofluorometer, TSA): decrease
proliferation (cell count, MTS assay) (MOLT3 line): inhibition of proliferation
target genes pTα, CR2, DTX-1 ([3]; cell lines and primary cells, treatment with TSA): decrease
cell death (annexin V) ([4]; T-ALL cell lines and 7 primary lines, TSA 500 nM): induction of cell death
co-localization between Notch3 and LAMP2 [12]: increase in co-localization
cell death (caspase activation) after restoring Notch3 levels (RV-N3 vs RV-CNTR) [13]: die significantly less
full length (FL) Notch3 receptor, western blotting (Notch3 receptor [1]; [14]): decrease
